The text below walks through data of patent US20240016784A1, “Y BOX BINDING PROTEIN 1 INHIBITORS” (Oregon Health & Science University, priority 2020, published 2024).

Assay [1] relates to OC cell lines. As to the kind of experiment: Cell migration assay (Boyden chamber). The format is cell-based. To be noted: different OC cell lines, P<0.05. How it is done: To determine whether proliferation inhibition was the dominant factor driving the reduction in OC viability seen with AzP treatment, we used propidium iodide and annexin-FITC stains with flow cytometry to measure the distribution of cell cycle phases after treatment. […] Furthermore, in the Boyden chamber assay for cell migration, SU093 inhibited cell migration by 40-46% (1 μM, P<0.05) in different OC cell lines.
Cell migration assay: 1×10^5 cells were plated in 60 mm cell culture dishes (Corning-Falcon, #353002) and incubated for 24 h. […] Cells were trypsinized and collected in a conical tube for each plate. Pellets of cells were resuspended, and live cells were counted using a hemocytometer and trypan blue staining. 40,000 live cells were then plated in the upper chamber of 8-micron transwell (Corning-Falcon, #353097) with 0.2% FBS media. The lower chamber contained 10% FBS complete media. […] Each transwell was washed, swiped for non-migrated cells and fixed using 75% ethanol. Fixed transwells were stained with 0.5% crystal violet for 1 h. De-stained transwell membranes were cut and mounted on a slide using DPX mounting media. Migrated cells were counted under the microscope at 100× magnification.
FIG. 1A) Lead optimization of SU093 to obtain SU056. […] FIG. 1G) Effects of SU093 and SU056 on apoptotic cell death analyzed by Annexin-FITC staining. […]

For assay [2], the system named is YB-1 and MDR1 expression. The assay is described as follows: Immunohistochemistry of ID8 tumor xenograft samples. The format is in vivo, mice. As to conditions: SU056 20 mg/kg. The method, then:
Out of six targets identified, we selected proteins whose thermal shift is above 5° in the presence of SU056 for further study of protein expression after treatment. […] To study the in vivo effects of SU056 treatment, we analyzed ID8 tumor xenograft samples via immunohistochemistry (IHC). […] To identify the broader effects of SU056 on YB-1 and its downstream protein/activity in different ovarian cancer cell lines, we selected six different cell lines and treated them with SU056 (2.5 μM) for 12 h. Cells were analyzed for YB-1 and CD44 expression and Multidrug resistance 1 (MDR1, ABC pump mediated efflux). […] Finally, we tested the time kinetics and dose-dependent effects of SU056 on YB-1 expression. OVCAR4, OVCAR8, and SKOV3 cells were treated with SU056 (1, 2.5, and 5 μM) for 3, 6, 12, and 24 h and YB-1 expression was measured using YB-1 ELISA. […] 5 μM treatment for 24 h inhibited YB-1 completely (100%) in all three OC cells (FIG. 4E).
Immunohistochemistry: Fixed tumors and organs were embedded in paraffin. Each block was cut in 5 μm sections and fixed on poly-L lysine-coated slides. […]
FIGS. 4A-4E: SU056 inhibits YB-1. […] FIG. 4C) Respective OC cells were treated with 2.5 μM SU056 for 12 h and YB-1 & CD44 expression and multidrug resistance activity was measured as described in the ‘method’ section. The % inhibition was calculated and compared to the control for the respective cell line. […]

In assay [3] the test system is OVCAR8 OC tumors. As to the kind of experiment: OVCAR8 xenograft combination study. The format is in vivo, NOD-SCID mice. To be noted: SU056 10 mg/kg daily, paclitaxel 5 mg/kg weekly, intraperitoneal, 28 days. The method, then:
In a pharmacokinetics study in vivo, injection of 20 mg/kg SU056 led to a maximum serum concentration of 28.19 μg/mL with a T1/2 of ˜45 min. We then tested the synergism of paclitaxel and SU056 co-treatment in vivo in NOD-SCID mice implanted with OVCAR8 OC tumors as described above. Mice were given daily treatment of SU056 (10 mg/kg) and weekly treatment of paclitaxel (5 mg/kg) were administered intraperitoneally. […] This likely resulted from decreased paclitaxel efflux from OVCAR8 cells in the presence of SU056.
In vivo xenograft model and drug efficacy study: All animal experiments were reviewed and approved by the Animal Care and Use Committee of Stanford University, CA, USA. Luciferase tagged ID8 (2×10^6) or OVCAR8 (5×10^6) cells were implanted into the right flank of 6-7-week-old female C57BL/6 mice and NOD/SCID mice, respectively. Respective treatment began after tumors grew to 100-200 mm^3 diameters. The ID8 syngeneic mice model was treated with a vehicle (30% PEG-300 in saline), 20 mg/kg SU093, and 20 mg/kg SU056 intraperitoneally (IP) daily for 42 days. At the end of treatment, blood was collected from each mouse and analyzed for liver toxicity parameters, including Alanine Aminotransferase (ALT), Aspartate Aminotransferase (AST), and Alkaline Phosphatase (ALKP). […]

In turn, `O=C1OCC2=C1C(c1cccc(F)c1)c1cc3c(cc1N2CCO)OCO3` (stereo not drawn) [SU056, 9-(3-fluorophenyl)-5-(2-hydroxyethyl)-6,9-dihydro-[1,3]dioxolo[4,5-g]furo[3,4-b]quinolin-8(5H)-one] came in with an inhibition at 1 µM in assay [1] of 78 to 87%. Besides, the “YB-1 and MDR1 expression in tumors (IHC)” value in assay [2] is on record as “strongly inhibits YB-1 expression followed by downregulation of downstream MDR1”. The OC tumor growth result in assay [3] is recorded as “significant reduction in OC tumor growth”.
